{"source": "patent EP2958945B1", "about": "“COMBINATION THERAPY INVOLVING ANTIBODIES AGAINST CLAUDIN 18.2 FOR TREATMENT OF CANCER” (Astellas Pharma Inc., priority 2013, dated 2014)", "assay_type_in_all_cases": "cell-based, human", "key": {"BxPC3-LVT": {"test_system": "BxPC3-LVT", "assay": "Inhibition of proliferation (XTT), BxPC3-LVT", "conditions": "exposed for 4 days", "method": "(§1) To analyze dose-response curves of each chemotherapeutic agent, a proliferation assay was performed. Table 6: Pancreas cancer cell lines to analyze efficacy of gemcitabine or oxaliplatin\n(§2) Cells were seeded in 96well plates and after 4-6 hours gemcitabine or oxaliplatin was added in following concentrations: 1000, 500, 250, 100 and 20 ng/ml. The proliferation assay was incubated for 4 days at 37°C and 5% CO2. 50 µl XTT complete reagent (50 parts XTT + 1 part coupl. reagent mixed) was added and incubated at 37°C. Measurement of absorbance (cells plus supernatant) was done with the Tecan Safire after 3 h and 4 h. Inhibition of proliferation was calculated compared to medium values set as 100%. EC50 values for gemcitabine and oxaliplatin were calculated in the GraphPad Prism program."}, "MiaPaCa-2-LVT": {"test_system": "MiaPaCa-2-LVT", "assay": "Inhibition of proliferation (XTT), MiaPaCa-2-LVT", "conditions": "exposed for 4 days", "method": "as §1, §2"}, "DANG": {"test_system": "DANG", "assay": "Inhibition of proliferation (XTT), DANG", "conditions": "exposed for 4 days", "method": "as §1, §2"}, "Kato III cells": {"test_system": "Kato III cells", "assay": "Cell cycle analysis and cell growth, Kato III", "conditions": "Kato III; 5-FU 10 or 100 ng/ml, oxaliplatin 50 or 500 ng/ml; 96 hours", "method": "Kato III cells, a human gastric tumor cell line, was cultivated in RPMI 1640 medium (Invitrogen) containing 20% FCS (Perbio) and 2 mM Glutamax (Invitrogen) at 37°C and 5% CO2, with or without cytostatic compounds. 5-FU (Neofluor from NeoCorp AG) was tested at a concentration of 10 or 100 ng/ml, and oxaliplatin (Hospira) was tested at a concentration of 50 or 500 ng/ml. […] Cells were harvested with EDTA/trypsin, washed and analysed.\nCell cycle stages were determined based on measurement of cellular DNA content. This allows one to discriminate between cells in the G1-, S- or G2-phase of the cell cycle. In the S-phase DNA duplication occurs whereas in the G2-phase cells grow and prepare for mitosis. Cell cycle analysis was done using the CycleTEST PLUS DNA Reagent Kit from BD Biosciences following the manufacturer's protocol. Flow cytometry acquisition and analysis were performed by using BD FACS CantoII (BD Biosciences) and FlowJo (Tree Star) software.\nKato III cells were pretreated for 4 days with Irinotecan or Docetaxel and analysed for CLDN18.2 expression and cell cycle arrest."}, "Capanl-LVT": {"test_system": "Capanl-LVT", "assay": "Inhibition of proliferation (XTT), Capanl-LVT", "conditions": "exposed for 4 days", "method": "as §1, §2"}}}
{"smiles": "O=C1[O][Pt]2([NH][C@@H]3CCCC[C@H]3[NH]2)[O]C1=O", "note": "[oxaliplatin, [(1R,2R)-cyclohexane-1,2-diamine](ethanedioato-O,O')platinum(II)]", "values": [{"measurement": "IC50 Inhibition of Proliferation", "setting": "BxPC3-LVT", "value": "0.5 to 1", "unit": "µg/mL"}, {"measurement": "IC50 Inhibition of Proliferation", "setting": "MiaPaCa-2-LVT", "value": "0.05 to 0.1", "unit": "µg/mL"}, {"measurement": "IC50 Inhibition of Proliferation", "setting": "DANG", "value": "~0.5", "unit": "µg/mL"}, {"measurement": "cell cycle phase distribution", "setting": "Kato III cells", "value": "enrichment of cells predominantly in the G1- and G2-phases"}, {"measurement": "IC50 Inhibition of Proliferation", "setting": "Capanl-LVT", "value": "~0.1", "unit": "µg/mL"}]}
